Active and inactive are the calls of the source. The calls are words filed in the database; no cut-off is given here.
Assays:
Mus musculus [1] = assay: In vivo inhibition of slc26a3 in loperamide-induced constipation model of female CD-1 mouse at 5 mg/kg, po assessed as reduction in stool water content; type: functional, organism-based
HBE [2] = assay: Inhibition of ENaC in human HBE cells at 10 uM pretreated with amiloride assessed as effect on short-circuit current responses; type: cell-based
HBE [3] = assay: Inhibition of CFTR in human HBE cells at 10 uM pretreated with forskolin assessed as effect on short-circuit current responses; type: cell-based
Mus musculus [4] = assay: In vivo inhibition of slc26a3 in loperamide-induced constipation model of female CD-1 mouse at 5 mg/kg, po co-administered with tenapanor assessed as reduction in pellet number; type: functional, organism-based
Pendrin (Mus musculus) = target: T1, Pendrin (Mus musculus) (UniProt Q9R155); assay: Inhibition of mouse Slc26a4-mediated Cl-/ I- exchange at 10 uM measured by cell-based fluorescence assay
T1 sequence (whole entry): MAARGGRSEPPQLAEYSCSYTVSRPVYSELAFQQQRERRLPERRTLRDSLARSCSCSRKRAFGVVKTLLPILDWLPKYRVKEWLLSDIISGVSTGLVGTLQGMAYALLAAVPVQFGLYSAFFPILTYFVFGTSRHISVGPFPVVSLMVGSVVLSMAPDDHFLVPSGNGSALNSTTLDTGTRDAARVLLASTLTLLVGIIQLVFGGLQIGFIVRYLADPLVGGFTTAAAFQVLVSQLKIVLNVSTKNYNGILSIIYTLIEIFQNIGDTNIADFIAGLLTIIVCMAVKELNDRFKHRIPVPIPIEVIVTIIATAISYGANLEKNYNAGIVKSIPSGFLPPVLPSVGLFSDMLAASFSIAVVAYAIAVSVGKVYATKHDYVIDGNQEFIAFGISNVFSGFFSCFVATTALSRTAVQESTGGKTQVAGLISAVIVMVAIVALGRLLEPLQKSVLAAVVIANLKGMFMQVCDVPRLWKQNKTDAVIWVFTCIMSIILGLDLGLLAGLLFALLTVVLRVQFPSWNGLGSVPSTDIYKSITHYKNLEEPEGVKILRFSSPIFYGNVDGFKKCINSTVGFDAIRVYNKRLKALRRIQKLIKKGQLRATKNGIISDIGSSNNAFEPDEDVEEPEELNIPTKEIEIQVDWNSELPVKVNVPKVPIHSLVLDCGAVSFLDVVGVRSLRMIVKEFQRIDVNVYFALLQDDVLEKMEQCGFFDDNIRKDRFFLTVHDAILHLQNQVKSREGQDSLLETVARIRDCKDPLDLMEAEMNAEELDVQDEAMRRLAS

Mus musculus [5] = assay: Inhibition of oxalate absorption in high oxalate and low calcium diet-induced oxalate nephropathy model of mouse at 5 mg/kg, po assessed as reduction in urine sediment; type: functional, organism-based
Mus musculus [6] = assay: In vivo inhibition of slc26a3 in loperamide-induced constipation model of female CD-1 mouse at 5 mg/kg, po assessed as reduction in pellet number; type: functional, organism-based
Mus musculus [7] = assay: Inhibition of oxalate absorption in high oxalate and low calcium diet-induced oxalate nephropathy model of mouse at 5 mg/kg, po assessed as reduction in kidney damage; type: functional, organism-based
Mus musculus [8] = assay: Inhibition of oxalate absorption in high oxalate and low calcium diet-induced oxalate nephropathy model of mouse at 5 mg/kg, po assessed as reduction in crystal deposition in kidney; type: functional, organism-based
[9] = target: T2, Solute carrier family 26 member 6 (Mus musculus) (UniProt Q8CIW6); assay: Inhibition of mouse Slc26a6-mediated Cl-/ I- exchange at 10 uM measured by cell-based fluorescence assay
T2 sequence (whole entry): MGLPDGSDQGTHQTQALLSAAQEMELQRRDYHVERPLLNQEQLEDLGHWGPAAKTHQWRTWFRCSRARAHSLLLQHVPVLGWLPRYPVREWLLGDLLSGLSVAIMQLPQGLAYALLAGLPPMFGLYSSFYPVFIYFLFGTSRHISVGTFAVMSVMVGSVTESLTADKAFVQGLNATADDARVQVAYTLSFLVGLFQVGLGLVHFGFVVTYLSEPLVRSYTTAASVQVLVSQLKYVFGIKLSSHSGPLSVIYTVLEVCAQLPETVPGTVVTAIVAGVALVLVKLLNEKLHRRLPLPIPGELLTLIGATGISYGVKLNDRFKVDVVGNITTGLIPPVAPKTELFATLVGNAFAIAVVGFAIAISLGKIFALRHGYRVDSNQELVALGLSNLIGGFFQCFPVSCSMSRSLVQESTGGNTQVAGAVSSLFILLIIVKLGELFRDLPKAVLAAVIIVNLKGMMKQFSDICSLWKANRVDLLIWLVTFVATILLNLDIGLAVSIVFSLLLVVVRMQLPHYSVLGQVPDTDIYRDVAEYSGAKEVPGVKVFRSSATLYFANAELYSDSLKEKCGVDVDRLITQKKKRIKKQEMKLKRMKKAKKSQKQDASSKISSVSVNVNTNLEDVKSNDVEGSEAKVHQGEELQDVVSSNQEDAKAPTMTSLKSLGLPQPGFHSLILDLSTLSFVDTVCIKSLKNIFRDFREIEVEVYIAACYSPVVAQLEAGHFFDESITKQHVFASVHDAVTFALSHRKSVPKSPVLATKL

Mus musculus [10] = assay: In vivo inhibition of slc26a3 in loperamide-induced constipation model of cystic fibrosis mouse at 5 mg/kg, po assessed as reduction in pellet number; type: functional, organism-based
Colon [11] = assay: Inhibition of fluid absorption in distal colonic loop isolated from female CD-1 mouse at 10 uM assessed as effect on reduction in loop weight/length ratio; type: functional, tissue-based
Colon [12] = assay: Inhibition of fluid absorption in distal colonic loop isolated from female CD-1 mouse at 10 uM assessed as effect on reduction in loop weight/length ratio in presence of 10 microM tenapanor; type: functional, tissue-based
Mus musculus [13] = assay: In vivo inhibition of slc26a3 in loperamide-induced constipation model of female CD-1 mouse at 5 mg/kg, po co-administered with tenapanor assessed as reduction in stool weight; type: functional, organism-based
Mus musculus [14] = assay: In vivo inhibition of slc26a3 in loperamide-induced constipation model of cystic fibrosis mouse at 5 mg/kg, po assessed as reduction in stool weight; type: functional, organism-based

inhibition (Pendrin (Mus musculus)): inactive | inhibition [9]: inactive
Structure (SMILES): Cc1c(CC(=O)O)c(=O)oc2c(C)c(OCc3cccc(Br)c3)ccc12
inhibition (Mus musculus [1]): Active | inhibition (HBE [2]): inactive | inhibition (HBE [3]): inactive | inhibition (Mus musculus [4]): Active | inhibition (Mus musculus [5]): Active | inhibition (Mus musculus [6]): Active | inhibition (Mus musculus [7]): Active | inhibition (Mus musculus [8]): Active | inhibition (Mus musculus [10]): Active | inhibition (Colon [11]): Active | inhibition (Colon [12]): Active | inhibition (Mus musculus [13]): Active | inhibition (Mus musculus [14]): Active
